Source: patent US10047078B2, “Aminothiazole compounds” (National Health Research Institutes, priority 2016, dated 2018)

Key:
Mia-paca2 tumor model = assay: Xenograft efficacy, Mia-paca2 tumor model; type: in vivo, nude mice; details: PO 25 mg/kg
Experimental: (§1) Male nude mice (Nu-Fox1^nu) of 8 weeks old were purchased from BioLASCO (Taipei, Taiwan, R.O.C.). Human colorectal Colo205, pancreatic Mia-PaCa 2 tumor cells or MOLM-13, 32D-ITD/D835Y leukemia cells were inoculated subcutaneously at 1×10^6 cells each in the nude mice. All human cancer cells were detected as free of Mycoplasma spp before they were injected into animals. The tumor cells grow as xenograft tumors and the tumor size reached approximately 200-250 mm^3 in the nude mice ready for dose treatments. Test compounds were dissolved in 20% 2-hydroxypropy-β-cyclodextrin individually for oral gavage administrations to the nude mice. The tumor-bearing mice were treated with test compounds at various doses, 5 times a week for 2 weeks. Tumor sizes were measured by an electronic caliper and calculated with the formula: tumor size=length×width^2/2. Tumor size and animal body weight were measured twice a week before and after the tumor cell inoculation throughout the observation period. Uses of animals and experimental procedures thereof were approved by the Institutional Animal Care and Use Committee (IACUC) of the National Health Research Institutes.

[1] = tested on: xenografts FLT3-ITD-D835Y model; assay: Xenograft efficacy, FLT3-ITD-D835Y model; type: in vivo; details: FLT3-ITD-D835Y xenograft in nude mice, PO 25 mg/kg
Experimental: as §1

[2] = tested on: xenografts Mia-paca2 nude mice; assay: In vivo toxicity study, Mia-paca2 model; details: PO 25 mg/kg once daily; for Mortality (nude mice n = 6): 5 on 2 off × 2
Experimental: as §1, with “All human cancer cells were detected as free of Mycoplasma spp before they were injected into animals.” left out
(§2) Nine weeks old athymic nu/nu nude mice were administered orally at a once daily dose of 25, 50, 100, or 150 mg/kg on days 1-5 and 8-12.

[3] = tested on: xenografts FLT3-ITD-D835Y nude mice; assay: In vivo toxicity study, FLT3-ITD-D835Y model; details: PO 25 mg/kg once daily; for Mortality (nude mice n = 8): 5 on 2 off × 2
Experimental: as §1
(§3) Compounds of formula (I) were tested in animals for their in vivo efficacy following the procedure described in EXAMPLE 24. Nine weeks old athymic nu/nu nude mice were administered orally at a once daily dose of 25, 50, 100, or 150 mg/kg on days 1-5 and 8-12.

[4] = Pharmacokinetics and oral bioavailability in mice; details: for AUC(0-inf) / bioavailability: male, ICR, mouse, plasma
Experimental: (§7) Male ICR mice weighing 25-35 g each were obtained from BioLASCO (Taiwan Co., Ltd, Ilan, Taiwan). The animal studies were performed according to the National Health Research Institutes (NHRI) institutional animal care and committee-approved procedures. […] A single dose at 10 mg/kg of each of these four compounds was administered orally (PO) to a total of 27 male mice. Each mouse was given 100 mL of the IV dosing solution by intravenous tail-vein injection and 200 mL of the PO dosing solution by oral gavage. Animals that received the IV dose were not fasted and that received the PO dose were fasted overnight prior to dosing. At 0 (immediately before dosing), 2 (IV only), 5 (IV only), 15 and 30 min and at 1, 2, 4, 6, 8, 16 and 24 h after dosing, blood (˜500 mL) was collected from groups of 3 mice at each time point by cardio puncture and stored in ice (0-4° C.). Ethylenediaminetetraacetic acid (EDTA) was used as the anticoagulant. Plasma was separated from the blood by centrifugation (3000 rpm for 15 minutes at 4° C. in a Beckman Model Allegra 6R centrifuge) and stored in a freezer (−20° C.). Control plasma was obtained from mice receiving no compound for use of constructing the standard curve and for the preparation of quality control (QC) samples. All samples were analyzed for the parent compound by LC-MS/MS.
(§8) Oral bioavailability, presented as a percentage (F %), was calculated from dividing the average area under the curve (AUC) value of a compound after PO dosing by the average AUC value of the compound after IV dosing following dose normalization.

ABL1 T315I = ABL1 T315I (Homo sapiens, UniProt P00519, T315I); assay: SelectScreen biochemical kinase profiling; type: binding; details: 100 nM, read-out: Inhibition (% of control) at 100 nM
Experimental: (§4) Kinase inhibition data were obtained from SelectScreen® Biochemical Kinase Profiling Service.
(§5) More specifically, test compounds were screened in 160 nL of a 1% DMSO solution in the well of a 384-well plate; kinase/antibody mixtures (8 μL) were diluted to a 2-fold working concentration in an appropriate kinase buffer (3.84 μL) and a 4-fold AlexaFluor® labeled tracer (4 μL) was prepared in the kinase buffer; incubation of test solutions was conducted at room is temperature for 60 minutes; and readout on a fluorescence plate reader was recorded and analyzed.

DDR1 = DDR1 (Homo sapiens, UniProt Q08345); assay: SelectScreen biochemical kinase profiling; type: binding; details: 100 nM, read-out: Inhibition (% of control) at 100 nM
Experimental: as §4, §5

KIT = KIT (Homo sapiens, UniProt P10721); assay: SelectScreen biochemical kinase profiling; type: binding; details: 100 nM, read-out: Inhibition (% of control) at 100 nM
Experimental: as §4, §5

PDGFR A = PDGFR A (Homo sapiens, UniProt P16234); assay: SelectScreen biochemical kinase profiling; type: binding; details: 100 nM, read-out: Inhibition (% of control) at 100 nM
Experimental: as §4, §5

PDGFR B = PDGFR B (Homo sapiens, UniProt P09619); assay: SelectScreen biochemical kinase profiling; type: binding; details: 100 nM, read-out: Inhibition (% of control) at 100 nM
Experimental: as §4, §5

RET = RET (Homo sapiens, UniProt P07949); assay: SelectScreen biochemical kinase profiling; type: binding; details: 100 nM, read-out: Inhibition (% of control) at 100 nM
Experimental: as §4, §5

SRC = SRC (Homo sapiens, UniProt P12931); assay: SelectScreen biochemical kinase profiling; type: binding; details: 100 nM, read-out: Inhibition (% of control) at 100 nM
Experimental: as §4, §5

TRK A = TRK A (Homo sapiens, UniProt P04629); assay: SelectScreen biochemical kinase profiling; type: binding; details: 100 nM, read-out: Inhibition (% of control) at 100 nM
Experimental: as §4, §5

TRK B = TRK B (Homo sapiens, UniProt Q16620); assay: SelectScreen biochemical kinase profiling; type: binding; details: 100 nM, read-out: Inhibition (% of control) at 100 nM
Experimental: as §4, §5

Colo205 xenografts = assay: Xenograft efficacy, Colo205 model; type: in vivo; details: Colo205 xenografts in nude mice, 5 times a week for 2 weeks
Experimental: as §1

[5] = tested on: xenografts colo205 nude mice; assay: In vivo toxicity study, colo205 model; details: for Mortality (nude mice n = 6): 5 on 2 off × 2; for Tolerability: PO once daily, Compounds 1, 2, 3, 4, 6 at 50, 50, 100, 150 and 25 mg/kg
Experimental: as §1, with “All human cancer cells were detected as free of Mycoplasma spp before they were injected into animals.” left out
as §2

in vivo = details: male, ICR, mouse
Experimental: as §7, §8

32D-ITD/D835F cells = assay: MTS cell viability, 32D cells expressing FLT3-ITD mutant; type: cell-based, Murine; details: 72-h incubation
From the text: (§6) The five leukemic 32D cell lines were purchased from American Type Culture Collection (ATCC, Manassas, Va., USA). Murine pro-B lymphocyte 32D cell lines were stably transfected with expression vectors that encoded human FLT3 containing an ITD mutation (32D-ITD cells), ITD and D835Y (32D-ITD/D835Y cells), ITD and D835V (32D-ITD/D835V cells), ITD and D835F (32D-ITD/D835F cells), and ITD and F691L (32D-ITD/F691L cells) mutations, which lead to constitutive activation of the FLT3 downstream signaling proteins. The cell viability was assessed with the MTS assay described in PLoS One, 2014, 9, e97116. 32D-ITD/D835Y, 32D-ITD/D835V, 32D-ITD/D835F, 32D-ITD/F691L, and 32D-ITD/F691I cells were seeded in 96-well plates at 1×10^4 cells/mL (100 μL per well) for 24-h incubation. Test compounds (at various concentrations in dimethyl sulfoxide (DMSO) were subsequently added to the culture medium for 72-h incubation. The cell viability was determined by the MTS assay (Promega, Madison, Wis., USA).

32D-ITD/F691I cells = assay: as above; type: cell-based, Murine; details: 72-h incubation
From the text: as §6

32D-ITD/F691L cells = assay: as above; type: cell-based, Murine; details: 72-h incubation
From the text: as §6

MOLM-13 xenografts = assay: Xenograft efficacy, MOLM-13 model; type: in vivo, nude mice; details: starting tumor size ~250 mm^3
Experimental: as §1

[6] = tested on: xenografts MOLM-13 nude mice; assay: In vivo toxicity study, MOLM-13 model; details: for Mortality (nude mice n = 6 or 7): 5 on 2 off × 2; for Tolerability: PO once daily, Compound 2 at 25 and 50, Compound 4 at 150 mg/kg
Experimental: as §1, §3

SRC, sequence (P12931 whole entry): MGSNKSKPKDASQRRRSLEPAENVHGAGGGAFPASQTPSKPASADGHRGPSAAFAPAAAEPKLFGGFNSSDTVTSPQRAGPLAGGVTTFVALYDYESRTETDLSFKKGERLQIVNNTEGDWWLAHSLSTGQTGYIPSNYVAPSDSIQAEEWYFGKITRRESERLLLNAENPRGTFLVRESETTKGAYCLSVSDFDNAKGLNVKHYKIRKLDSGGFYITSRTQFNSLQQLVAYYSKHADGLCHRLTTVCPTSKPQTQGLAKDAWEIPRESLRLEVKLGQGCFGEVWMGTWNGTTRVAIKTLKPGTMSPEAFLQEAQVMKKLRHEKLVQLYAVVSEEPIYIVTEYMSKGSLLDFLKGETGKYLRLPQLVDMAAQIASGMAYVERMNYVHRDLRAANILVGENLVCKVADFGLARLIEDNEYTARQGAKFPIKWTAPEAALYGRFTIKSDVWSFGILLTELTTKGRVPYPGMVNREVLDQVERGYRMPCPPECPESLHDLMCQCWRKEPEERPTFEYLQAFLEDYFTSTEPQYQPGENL
TRK B, sequence (Q16620 32-822): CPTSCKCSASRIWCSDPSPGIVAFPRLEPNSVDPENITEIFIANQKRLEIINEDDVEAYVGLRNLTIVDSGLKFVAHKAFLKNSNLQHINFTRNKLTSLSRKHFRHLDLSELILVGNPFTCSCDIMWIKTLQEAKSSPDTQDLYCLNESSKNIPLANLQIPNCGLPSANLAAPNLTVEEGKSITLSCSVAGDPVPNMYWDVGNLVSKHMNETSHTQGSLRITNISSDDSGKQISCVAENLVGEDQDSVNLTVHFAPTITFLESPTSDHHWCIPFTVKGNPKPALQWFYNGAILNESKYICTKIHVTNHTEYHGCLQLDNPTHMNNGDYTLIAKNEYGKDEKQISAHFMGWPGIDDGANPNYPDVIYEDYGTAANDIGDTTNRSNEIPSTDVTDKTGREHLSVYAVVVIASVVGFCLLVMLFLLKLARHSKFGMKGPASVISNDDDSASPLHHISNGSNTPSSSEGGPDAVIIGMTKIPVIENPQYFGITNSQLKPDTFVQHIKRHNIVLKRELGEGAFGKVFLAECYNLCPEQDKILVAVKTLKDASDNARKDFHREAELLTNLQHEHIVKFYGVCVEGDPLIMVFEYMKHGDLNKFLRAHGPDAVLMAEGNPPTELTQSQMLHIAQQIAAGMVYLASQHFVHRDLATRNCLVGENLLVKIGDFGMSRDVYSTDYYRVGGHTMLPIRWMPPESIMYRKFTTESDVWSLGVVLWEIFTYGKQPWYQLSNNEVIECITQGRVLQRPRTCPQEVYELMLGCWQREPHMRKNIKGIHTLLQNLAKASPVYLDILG
TRK A, sequence (P04629 33-796): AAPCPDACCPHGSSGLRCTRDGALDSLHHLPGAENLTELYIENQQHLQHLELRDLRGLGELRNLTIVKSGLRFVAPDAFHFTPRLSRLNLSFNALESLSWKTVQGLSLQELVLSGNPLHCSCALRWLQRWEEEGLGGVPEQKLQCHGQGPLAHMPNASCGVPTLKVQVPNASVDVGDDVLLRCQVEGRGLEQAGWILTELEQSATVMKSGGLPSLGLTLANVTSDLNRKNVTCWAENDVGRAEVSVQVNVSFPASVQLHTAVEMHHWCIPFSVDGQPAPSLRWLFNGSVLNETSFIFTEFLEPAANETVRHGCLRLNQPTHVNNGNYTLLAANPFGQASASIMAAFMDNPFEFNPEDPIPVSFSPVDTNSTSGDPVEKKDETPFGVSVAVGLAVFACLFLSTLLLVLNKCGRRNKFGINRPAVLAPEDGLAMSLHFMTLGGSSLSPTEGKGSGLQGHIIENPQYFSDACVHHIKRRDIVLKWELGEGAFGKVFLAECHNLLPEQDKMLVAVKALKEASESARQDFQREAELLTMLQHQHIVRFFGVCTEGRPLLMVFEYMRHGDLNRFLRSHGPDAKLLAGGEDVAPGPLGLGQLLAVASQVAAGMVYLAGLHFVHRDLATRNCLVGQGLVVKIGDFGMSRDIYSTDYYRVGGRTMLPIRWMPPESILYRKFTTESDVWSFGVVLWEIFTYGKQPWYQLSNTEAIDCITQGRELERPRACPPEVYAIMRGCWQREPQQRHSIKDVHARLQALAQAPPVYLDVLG
PDGFR B, sequence (P09619 33-1106): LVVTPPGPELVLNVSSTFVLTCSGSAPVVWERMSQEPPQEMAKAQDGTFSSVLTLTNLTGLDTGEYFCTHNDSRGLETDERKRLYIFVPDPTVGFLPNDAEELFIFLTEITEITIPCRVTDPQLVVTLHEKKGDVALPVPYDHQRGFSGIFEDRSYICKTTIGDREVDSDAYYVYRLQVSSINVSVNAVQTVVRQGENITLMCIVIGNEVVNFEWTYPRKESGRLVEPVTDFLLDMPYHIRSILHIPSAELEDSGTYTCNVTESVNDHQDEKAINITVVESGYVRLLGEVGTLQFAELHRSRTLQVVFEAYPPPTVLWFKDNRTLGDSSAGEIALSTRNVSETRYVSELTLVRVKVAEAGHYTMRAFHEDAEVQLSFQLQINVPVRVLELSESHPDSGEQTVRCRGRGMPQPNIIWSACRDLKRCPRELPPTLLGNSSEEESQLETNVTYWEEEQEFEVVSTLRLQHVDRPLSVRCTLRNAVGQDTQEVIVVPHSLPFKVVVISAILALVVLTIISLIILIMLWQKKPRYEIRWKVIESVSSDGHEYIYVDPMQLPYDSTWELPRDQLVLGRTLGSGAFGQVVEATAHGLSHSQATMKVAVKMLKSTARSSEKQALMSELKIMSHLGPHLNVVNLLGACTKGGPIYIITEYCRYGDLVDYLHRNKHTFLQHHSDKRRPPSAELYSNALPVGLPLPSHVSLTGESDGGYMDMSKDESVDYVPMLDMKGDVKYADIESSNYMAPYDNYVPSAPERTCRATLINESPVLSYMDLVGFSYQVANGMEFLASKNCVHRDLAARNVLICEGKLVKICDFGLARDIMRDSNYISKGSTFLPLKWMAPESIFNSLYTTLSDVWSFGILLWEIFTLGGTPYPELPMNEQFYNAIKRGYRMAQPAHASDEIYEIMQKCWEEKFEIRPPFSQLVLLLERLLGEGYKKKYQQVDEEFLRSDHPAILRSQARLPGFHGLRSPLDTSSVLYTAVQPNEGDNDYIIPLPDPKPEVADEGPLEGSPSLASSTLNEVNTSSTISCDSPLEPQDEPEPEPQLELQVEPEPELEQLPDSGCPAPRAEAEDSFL
RET, sequence (P07949 29-1114): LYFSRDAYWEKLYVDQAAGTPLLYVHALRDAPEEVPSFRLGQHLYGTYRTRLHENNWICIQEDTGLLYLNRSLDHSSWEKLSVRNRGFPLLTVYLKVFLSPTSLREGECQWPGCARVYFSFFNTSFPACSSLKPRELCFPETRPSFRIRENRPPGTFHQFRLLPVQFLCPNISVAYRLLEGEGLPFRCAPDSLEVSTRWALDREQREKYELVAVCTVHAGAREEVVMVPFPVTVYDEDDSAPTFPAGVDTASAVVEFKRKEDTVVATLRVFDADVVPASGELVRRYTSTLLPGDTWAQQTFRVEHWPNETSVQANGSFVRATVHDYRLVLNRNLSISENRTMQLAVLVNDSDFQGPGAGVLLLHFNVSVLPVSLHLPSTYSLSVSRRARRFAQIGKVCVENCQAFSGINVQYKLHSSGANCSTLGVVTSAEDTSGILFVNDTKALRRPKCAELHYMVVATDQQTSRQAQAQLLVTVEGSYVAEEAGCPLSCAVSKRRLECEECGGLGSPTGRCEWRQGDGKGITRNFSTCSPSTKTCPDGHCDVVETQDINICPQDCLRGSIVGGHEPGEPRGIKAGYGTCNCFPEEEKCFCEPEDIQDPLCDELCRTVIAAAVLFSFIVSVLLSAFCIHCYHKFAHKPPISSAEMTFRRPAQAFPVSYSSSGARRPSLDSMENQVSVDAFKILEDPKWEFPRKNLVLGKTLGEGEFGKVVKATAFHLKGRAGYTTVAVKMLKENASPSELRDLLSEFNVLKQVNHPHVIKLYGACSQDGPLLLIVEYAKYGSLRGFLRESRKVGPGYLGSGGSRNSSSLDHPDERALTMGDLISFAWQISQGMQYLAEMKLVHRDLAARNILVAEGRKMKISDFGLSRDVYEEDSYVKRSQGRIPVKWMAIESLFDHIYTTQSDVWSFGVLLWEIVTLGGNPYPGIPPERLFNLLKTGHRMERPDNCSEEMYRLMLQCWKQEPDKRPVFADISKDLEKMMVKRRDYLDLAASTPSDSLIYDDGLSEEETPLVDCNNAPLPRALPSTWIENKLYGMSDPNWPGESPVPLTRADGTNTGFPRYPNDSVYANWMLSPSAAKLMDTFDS

Row | SMILES | Day 18 TGI (Mia-paca2 tumor model) [%] | Day 12 tumor regression [1] [%] | Tolerability [2] | Mortality (nude mice n = 6) [2] | Tolerability [3] | Mortality (nude mice n = 8) [3] | AUC(0-inf) ([4]; iv, 2 mg/kg) [ng·h/mL] | AUC(0-inf) ([4]; po, 10 mg/kg) [ng·h/mL] | bioavailability ([4]; po, 10 mg/kg) [%] | inhibition at 0.1 µM (DDR1) [%] | inhibition at 0.1 µM (KIT) [%] | inhibition at 0.1 µM (PDGFR A) [%] | inhibition at 0.1 µM (PDGFR B) [%] | inhibition at 0.1 µM (RET) [%] | inhibition at 0.1 µM (SRC) [%] | inhibition at 0.1 µM (TRK A) [%] | inhibition at 0.1 µM (TRK B) [%] | Tolerability [5] | GI50 (32D-ITD/D835F cells) [nM] | GI50 (32D-ITD/D835F cells; Mus musculus, 32D, 72 h) [nM] | further results
1 | CCc1cc(NC(=O)Nc2ccc(-c3cnc(Nc4cc(N5CCN(CCF)CC5)ncn4)s3)cc2)no1 [Compound 5, 1-(5-Ethylisoxazol-3-yl)-3-(4-(2-((6-(4-(2-fluoroethyl)piperazin-1-yl)pyrimidin-4-yl)amino)thiazol-5-yl)phenyl)urea] | 65 | 22 | well tolerated | 0/6 (25 mg/kg) | well tolerated | 0/8 (25 mg/kg) | 2720 | 8240 | 67 | – | – | – | – | – | – | – | – | – | – | – | –
2 | CCc1cc(NC(=O)Nc2ccc(-c3cnc(Nc4cc(OCCN5CCOCC5)ncn4)s3)cc2)no1 [Compound 3, 1-(5-Ethylisoxazol-3-yl)-3-(4-(2-((6-(2-morpholinoethoxy)pyrimidin-4-yl)amino)thiazol-5-yl)phenyl)urea] | – | – | – | – | – | – | 2070 | 11400 | 96 | 77 | 85 | 79 | 92 | 56 | 66 | 69 | 73 | well tolerated | – | – | inhibition at 0.1 µM (ABL1 T315I): 15%; Day 18 TGI (Colo205 xenografts; PO 100 mg/kg, 100 mg/kg): ~80%; Mortality (nude mice n = 6) ([5]; PO 100 mg/kg once daily): 0/6 (100 mg/kg)
3 | CCc1cc(NC(=O)Nc2ccc(-c3cnc(Nc4cc(N5CCN(CCF)CC5)nc(C)n4)s3)cc2)no1 [Compound 6, 1-(5-Ethylisoxazol-3-yl)-3-(4-(2-((6-(4-(2-fluoroethyl)piperazin-1-yl)-2-methylpyrimidin-4-yl)amino)thiazol-5-yl)phenyl)urea] | 68 | – | well tolerated | 0/6 (25 mg/kg) | – | – | – | – | – | – | – | – | – | – | – | – | – | well tolerated | – | – | Day 18 TGI (Colo205 xenografts; PO 25 mg/kg, 25 mg/kg): ~80%; Mortality (nude mice n = 6) ([5]; PO 25 mg/kg once daily): 0/6 (25 mg/kg); AUC(0-inf) (in vivo; iv, 2 mg/kg): 1840 ng·h/mL; AUC(0-inf) (in vivo; po, 10 mg/kg): 7580 ng·h/mL; bioavailability (in vivo; po, 10 mg/kg): 89%
4 | CCc1cc(NC(=O)Nc2ccc(-c3cnc(Nc4cc(N5CCN(CCO)CC5)ncn4)s3)cc2)no1 [Compound 4, 1-(5-Ethylisoxazol-3-yl)-3-(4-(2-((6-(4-(2-hydroxyethyl)piperazin-1-yl)pyrimidin-4-yl)amino)thiazol-5-yl)phenyl)urea] | – | – | – | – | – | – | – | – | – | – | – | – | – | – | – | – | – | well tolerated | 5.5 | < 6 | GI50 (32D-ITD/F691I cells): 19 nM; GI50 (32D-ITD/F691I cells; Mus musculus, 32D, 72 h): < 20 nM; GI50 (32D-ITD/F691L cells): 12 nM; GI50 (32D-ITD/F691L cells; Mus musculus, 32D, 72 h): < 20 nM; Day 18 TGI (Colo205 xenografts; PO 150 mg/kg, 150 mg/kg): ~80%; Day 25 tumor size (MOLM-13 xenografts; PO 150 mpk): 193 mm^3 (150 mpk); Mortality (nude mice n = 6) ([5]; PO 150 mg/kg once daily): 0/6 (150 mg/kg); Mortality (nude mice n = 6 or 7) ([6]; PO 150 mg/kg once daily): 0/6; Tolerability [6]: well tolerated
5 | CCc1cc(NC(=O)Nc2ccc(-c3cnc(Nc4cc(N5CCN(CC)CC5)ncn4)s3)cc2)no1 [Compound 2, 1-(5-Ethylisoxazol-3-yl)-3-(4-(2-((6-(4-ethylpiperazin-1-yl)pyrimidin-4-yl)amino)thiazol-5-yl)phenyl)urea] | – | 34 | – | – | well tolerated | 0/8 (25 mg/kg) | 1440 | 2800 | – | 80 | 67 | 89 | 80 | 94 | 79 | 60 | 72 | well tolerated | 5.8 | < 6 | GI50 (32D-ITD/F691I cells; Mus musculus, 32D, 72 h): 158 nM; GI50 (32D-ITD/F691L cells; Mus musculus, 32D, 72 h): 14 nM; Day 18 TGI (Colo205 xenografts; PO 50 mg/kg, 50 mg/kg): ~80%; Day 25 tumor size (MOLM-13 xenografts; PO 25 mpk): 270 mm^3; Day 25 tumor size (MOLM-13 xenografts; PO 50 mpk): 53 mm^3; Mortality (nude mice n = 6) ([5]; PO 50 mg/kg once daily): 0/6 (50 mg/kg); Mortality (nude mice n = 6 or 7) ([6]; PO 25 or 50 mg/kg once daily): 0/6; Tolerability [6]: well tolerated; F (%) oral bioavailability ([4]; mice, PO 10 mg/kg vs IV 2 mg/kg, dose normalized): 38%
